US8920793B2, “Biodegradable PAOX polymer particle with cationic property” (Industrial Cooperation Foundation Chonbuk National …, priority 2011, dated 2014)

Legend:
[1] = oral intake; cited from earlier work
[2] = system: acute liver failure induced by acetaminophen (APAP); assay: ALT assay in mouse models of APAP-induced acute liver failure; assay type: in vivo; details: 10 ug of free PEN, 1 hour before APAP
Procedure: On the assumption that the PAOX polymers rapidly deliver drugs to the cytoplasm due to high hydrolysis rate and proton sponge effects, which leads to more rapid treatment, mouse models of acute liver failure (ALF) were used as experimental models, and pentoxifylline (PEN) was used as a drug model.
In order to investigate the cytotoxicity of PAOX-PEN particles prepared by the method as described in the above section 7, a tetrazolium-based colorimetric MTT assay was performed. Moreover, an alanine transaminase (ALT) assay, which is mainly used for evaluation of liver functions, was performed to evaluate the effect of PAOX-PEN particles in terms of the amount of drug loaded in PAOX-PEN particles and daily dosages.
6-week-old BALB/c female mice were used for the experiments and classified into each group. The PAOX-PEN particles were dispersed in 10 mg/mL (PBS), and each of 50 μL, 100 μL, and 200 μL of the resulting solution was injected into mouse tail veins. In the case of free PEN, the drug solution was administered with the calculation of dose and, only PBS was administered to the negative control groups. After 1 hour, 200 μL of APAP in a concentration of 25 mg/mL was injected intraperitoneally to induce acute liver failure. The mice were sacrificed 10 hours later, and blood was taken from the heart. […]

[3] = system: RAW 264.7 cells; assay: Catalase delivery: PMA-induced hydrogen peroxide, DCFH-DA fluorescence by flow cytometry; assay type: cell-based; details: pretreatment 12 hours, then PMA stimulation
Procedure: To investigate the ability of PAOX particles to deliver protein drugs, catalase was used as a model protein drug. RAW 264.7 cells (1×10^6 cells) were pretreated with catalase, catalase-loaded PAOX particles, catalase-loaded PLGA particles or empty PAOX particles for 12 hours and then stimulated with 1 μg of PMA (phorbol-12-myristate-13-acetate) to induce the production of hydrogen peroxide. PMA was used to stimulate cells for the production of reactive oxygen species including hydrogen peroxide. Then, DCFH-DA (dichlorofluorescin-diacetate) was added to each well and incubated for 30 minutes. The efficacy of PAOX particles to deliver catalase to cells was evaluated by measuring the intensity of the fluorescence produced by DCFH-DA with a flow cytometry caliber (Becton Dickinson, US).

In the case of `OCC1CCC(CO)CC1` (stereo not drawn) [1,4-cyclohexanedimethanol], the LD50 [1] is listed as 3,200 mg/kg.

For `CC(=O)CCCCn1c(=O)c2c(ncn2C)n(C)c1=O` [free PEN, pentoxifylline], the ALT reduction effect [2] was “no ALT reduction effects”.

B1: catalase (protein, UniProt P00432 2-527, looked up)
Catalase: ADNRDPASDQMKHWKEQRAAQKPDVLTTGGGNPVGDKLNSLTVGPRGPLLVQDVVFTDEMAHFDRERIPERVVHAKGAGAFGYFEVTHDITRYSKAKVFEHIGKRTPIAVRFSTVAGESGSADTVRDPRGFAVKFYTEDGNWDLVGNNTPIFFIRDALLFPSFIHSQKRNPQTHLKDPDMVWDFWSLRPESLHQVSFLFSDRGIPDGHRHMNGYGSHTFKLVNANGEAVYCKFHYKTDQGIKNLSVEDAARLAHEDPDYGLRDLFNAIATGNYPSWTLYIQVMTFSEAEIFPFNPFDLTKVWPHGDYPLIPVGKLVLNRNPVNYFAEVEQLAFDPSNMPPGIEPSPDKMLQGRLFAYPDTHRHRLGPNYLQIPVNCPYRARVANYQRDGPMCMMDNQGGAPNYYPNSFSAPEHQPSALEHRTHFSGDVQRFNSANDDNVTQVRTFYLKVLNEEQRKRLCENIAGHLKDAQLFIQKKAVKNFSDVHPEYGSRIQALLDKYNEEKPKNAVHTYVQHGSHLSAREKANL
With B1 the “inhibitory effect on PMA-induced fluorescence” value [3] was “no inhibitory effects”.
